Where a SMILES comes first, the peptide text is derived from it.
Assay: Water solubility of peptides when preparing stock solutions
Type: physicochemical
Conditions: stock solution in sterile distilled water or 100% DMSO; read-out: solubility of peptide (water soluble or water insoluble, dissolved in DMSO)
Summary of the method: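 Water-soluble peptides from water stocks and insoluble ones from 100% DMSO stocks (50 mg/ml), each diluted to 2 mg/ml in water then into media. Added singly or as pools to 350,000 PBMC in anti-IL-4 ELISPOT wells at 10 μg/ml final per peptide. Identically diluted media-only controls.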

Row | SMILES | solubility
1 | CC(C)C[C@H](NC(=O)[C@H](CCC(N)=O)NC(=O)[C@H](Cc1c[nH]c2ccccc12)NC(=O)[C@H](Cc1c[nH]cn1)NC(=O)[C@H](CC(C)C)NC(=O)[C@@H](NC(=O)[C@H](CC(N)=O)NC(=O)[C@H](Cc1ccc(O)cc1)NC(=O)[C@H](CO)NC(=O)[C@H](CC(N)=O)NC(=O)[C@@H](NC(=O)[C@H](Cc1c[nH]c2ccccc12)NC(=O)[C@@H](NC(=O)[C@@H](NC(=O)CN)[C@@H](C)O)C(C)C)C(C)C)[C@@H](C)O)C(=O)O [Peptide 72.2, GTVWVNSYNTLHWQL] (H-GTVWVNSYNTLHWQL-OH) | < 2500 µg/mL
2 | CC[C@H](C)[C@H](N)C(=O)N[C@@H](C)C(=O)N[C@@H](CO)C(=O)N[C@@H](CC(C)C)C(=O)N[C@@H](Cc1ccccc1)C(=O)N[C@@H](C)C(=O)N[C@@H](C)C(=O)N[C@@H](C)C(=O)NCC(=O)N[C@@H](CC(C)C)C(=O)N[C@@H](C)C(=O)N[C@@H](C)C(=O)N[C@@H](C)C(=O)N[C@@H](C)C(=O)N1CCC[C@H]1C(=O)O [Peptide L6-2, IASLFAAAGLAAAAP] | < 2500 µg/mL
3 | CC(C)C[C@H](NC(=O)[C@@H]1CCCN1C(=O)[C@H](C)NC(=O)[C@H](C)NC(=O)[C@H](C)NC(=O)[C@H](C)NC(=O)[C@H](CC(C)C)NC(=O)CNC(=O)[C@H](C)NC(=O)[C@H](C)NC(=O)[C@H](C)NC(=O)[C@H](Cc1ccccc1)NC(=O)[C@H](CC(C)C)NC(=O)[C@H](CO)NC(=O)[C@H](C)N)C(=O)O [Peptide L6-3, ASLFAAAGLAAAAPL] (H-ASLFAAAGLAAAAPL-OH) | < 2500 µg/mL
4 | CC[C@H](C)[C@H](NC(=O)[C@H](CC(N)=O)NC(=O)[C@H](Cc1ccccc1)NC(=O)CNC(=O)[C@H](CC(C)C)NC(=O)[C@H](CO)NC(=O)[C@H](CC(N)=O)NC(=O)[C@H](Cc1ccc(O)cc1)NC(=O)[C@H](Cc1ccc(O)cc1)NC(=O)[C@@H](NC(=O)CN)[C@@H](C)O)C(=O)N[C@@H](CCCCN)C(=O)N[C@@H](C)C(=O)N[C@H](C(=O)N[C@@H](CC(N)=O)C(=O)O)[C@@H](C)O [Peptide L6-4, GTYYNSLGFNIKATN] (H-GTYYNSLGFNIKATN-OH) | < 2500 µg/mL
5 | CC(C)C[C@H](N)C(=O)N1CCC[C@H]1C(=O)N[C@@H](CC(N)=O)C(=O)N[C@@H](Cc1ccc(O)cc1)C(=O)N[C@H](C(=O)N[C@@H](CCCNC(=N)N)C(=O)N[C@@H](C)C(=O)NCC(=O)NCC(=O)N[C@@H](CC(N)=O)C(=O)NCC(=O)N1CCC[C@H]1C(=O)N[C@@H](CCCCN)C(=O)N[C@@H](CC(=O)O)C(=O)N[C@@H](Cc1ccccc1)C(=O)O)C(C)C [Peptide L6-5.01, LPNYVRAGGNGPKDF] (H-LPNYVRAGGNGPKDF-OH) | > 2500 µg/mL
6 | CC(C)C[C@H](NC(=O)[C@H](CCCCN)NC(=O)[C@H](CC(=O)O)NC(=O)[C@H](C)NC(=O)[C@H](CCC(N)=O)NC(=O)[C@H](C)NC(=O)[C@H](CO)NC(=O)[C@@H](NC(=O)[C@@H](NC(=O)[C@H](Cc1ccccc1)NC(=O)[C@H](CC(=O)O)NC(=O)[C@H](CC(C)C)NC(=O)[C@@H](NC(=O)CNC(=O)CN)[C@@H](C)O)[C@@H](C)O)C(C)C)C(=O)O [Peptide L10-1.01, GGTLDFTVSAQADKL] (H-GGTLDFTVSAQADKL-OH) | > 2500 µg/mL
7 | CC(C)C[C@H](NC(=O)[C@H](Cc1ccccc1)NC(=O)[C@H](CO)NC(=O)[C@H](CC(N)=O)NC(=O)[C@H](CCC(=O)O)NC(=O)CNC(=O)[C@@H](NC(=O)[C@H](CO)NC(=O)[C@H](Cc1ccc(O)cc1)NC(=O)[C@H](Cc1c[nH]c2ccccc12)NC(=O)[C@H](CCCCN)NC(=O)[C@H](Cc1c[nH]cn1)NC(=O)[C@@H](N)CC(=O)O)C(C)C)C(=O)N[C@@H](CC(=O)O)C(=O)N[C@@H](Cc1ccccc1)C(=O)O [Peptide L10-2.01, DHKWYSVGENSFLDF] (H-DHKWYSVGENSFLDF-OH) | > 2500 µg/mL
8 | CC[C@H](C)[C@H](NC(=O)[C@H](CC(=O)O)NC(=O)[C@H](CC(=O)O)NC(=O)[C@H](CO)NC(=O)[C@@H](NC(=O)[C@H](CCCCN)NC(=O)[C@H](CCC(N)=O)NC(=O)[C@@H](N)CCCCN)C(C)C)C(=O)N[C@H](C(=O)N[C@@H](Cc1ccc(O)cc1)C(=O)N[C@H](C(=O)N[C@@H](C)C(=O)N[C@H](C(=O)N[C@@H](C)C(=O)N[C@H](C(=O)O)[C@@H](C)O)[C@@H](C)O)C(C)C)[C@@H](C)O [Peptide L10-3, KQKVSDDITYVATAT] (H-KQKVSDDITYVATAT-OH) | > 2500 µg/mL
